Measurements: patent US8969554B2, “6-acyl-1,2,4-triazine-3,5-dione derivative and herbicides” (Kumiai Chemical Industry Co., Ltd., priority 2010, dated 2015)

Columns and labels:
Type in all cases: in vivo
[1] = tested on: A. retroflexus; assay: Herbicidal activity by field soil treatment (Test example 2); design: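 index 0 to 10 in 10% steps of herbicidal effect with 10 meaning complete death and 0 below 10%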; conditions: 1000 g effective component per hectare, day 21 after the treatment
How it was run: (§1)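 Seeds of the four weeds sown in field soil in pots; wettable powder diluted in water sprayed pre-emergence on soil surface at 1000 L/ha, giving 1000 g active per hectare. Greenhouse grown; herbicidal effect scored on day 21 after treatment by set criteria.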

[2] = tested on: Echinochloa crus-galli; assay: as above; design: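 index 0 to 10 in 10% steps of herbicidal effect with 10 meaning complete death and 0 below 10%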; conditions: 1000 g effective component per hectare, day 21 after the treatment
How it was run: as §1

[3] = tested on: Indian millet; assay: as above; design: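 index 0 to 10 in 10% steps of herbicidal effect with 10 meaning complete death and 0 below 10%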; conditions: 1000 g effective component per hectare, day 21 after the treatment
How it was run: as §1

[4] = tested on: Echinochloa crus-galli; assay: Herbicidal activity by field foliage treatment (Test example 3); design: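 index 0 to 10 in 10% steps of herbicidal effect with 10 meaning complete death and 0 below 10%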; conditions: 1000 g effective component per hectare, day 14 after the treatment
How it was run: (§2)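 Potted field-soil plants grown 2 weeks in a greenhouse were sprayed over the whole foliage with diluted wettable powder at 1000 L/ha, delivering 1000 g active ingredient per hectare. Herbicidal effect scored by visual criteria 14 days after treatment.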

[5] = tested on: Echinochloa oryzicola; assay: Herbicidal activity by paddy field soil treatment (Test Example 1); design: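 index 0 to 10 in 10% steps of herbicidal effect with 10 meaning complete death and 0 below 10%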; conditions: 1000 g of effective component per hectare, evaluated on day 21 after the treatment, criteria of Table 72
How it was run: (§3)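 Paddy soil in pots sown with seeds, flooded to 3 cm; next day wettable powder diluted in water applied to water surface at 1000 g active ingredient/ha. Greenhouse-grown; herbicidal effect scored on day 21 after treatment against rating criteria.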

[6] = tested on: Scirpus juncoides Rocxb.; assay: as above; design: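 index 0 to 10 in 10% steps of herbicidal effect with 10 meaning complete death and 0 below 10%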; conditions: applied on water surface, 1000 g of effective component per hectare, day 21 after the treatment
How it was run: as §3

[7] = tested on: Monochoria vaginalis; assay: as above; design: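 index 0 to 10 in 10% steps of herbicidal effect with 10 meaning complete death and 0 below 10%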; conditions: 1000 g of effective component per hectare, evaluated on day 21 after the treatment, criteria of Table 72
How it was run: as §3

[8] = tested on: foxtail; assay: Herbicidal activity by field soil treatment (Test example 2); conditions: 1000 g effective component per hectare, day 21 after the treatment;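 further: index 0 to 10 in 10% steps of herbicidal effect with 10 meaning complete death and 0 below 10%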
How it was run: as §1

[9] = tested on: Setaria viridis; assay: Herbicidal activity by field foliage treatment (Test example 3); conditions: 1000 g effective component per hectare, day 14 after the treatment;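 further: index 0 to 10 in 10% steps of herbicidal effect with 10 meaning complete death and 0 below 10%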
How it was run: as §2

[10] = tested on: A. retroflexus; assay: as above; design: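 index 0 to 10 in 10% steps of herbicidal effect with 10 meaning complete death and 0 below 10%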; conditions: 1000 g effective component per hectare, day 14 after the treatment
How it was run: (§4)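 Field soil in pots; Indian millet and A. retroflexus grown 2 weeks in greenhouse, then sprayed over whole plant with water-diluted wettable powder at 1000 L/ha, giving 1000 g active component/ha. Herbicidal effect scored by set criteria on day 14 after treatment.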

[11] = tested on: Indian millet; assay: as above; design: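 index 0 to 10 in 10% steps of herbicidal effect with 10 meaning complete death and 0 below 10%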; conditions: 1000 g effective component per hectare, day 14 after the treatment
How it was run: as §4

Structure (SMILES)	herbicidal effect index, Amaranthus retroflexus [1]	herbicidal effect index, Echinochloa crus-galli [2]	herbicidal effect index, Abutilon theophrasti [3]	herbicidal effect index, Echinochloa crus-galli [4]	Herbicidal effects index number, Echinochloa oryzicola [5]	herbicidal effect index, S. juncoides Rocxb. [6]	Herbicidal effects index number, Monochoria vaginalis [7]	herbicidal effect index, Setaria viridis [8]	herbicidal effect index, Setaria viridis [9]	herbicidal effect index, Amaranthus retroflexus [10]	herbicidal effect index, Abutilon theophrasti [11]
Cn1nc(C(=O)C2=C(O)CCCC2=O)c(=O)n(-c2ccccc2C(F)(F)F)c1=O [I-63]	10	10	10	10	10	10	10	10	10	10	10
CC(C)c1ccccc1-n1c(=O)c(C(=O)C2=C(O)CCCC2=O)nn(C)c1=O [I-286]	10	10	9	10	10	9	10	9	10	10	9
Cn1nc(C(=O)C2=C(O)CCCC2=O)c(=O)n(C)c1=O [I-1]	10	8	9	8	10	10	10	7	8	10	9
Cn1nc(C(=O)C2=C(O)CCCC2=O)c(=O)n(-c2ccc(OC(F)(F)F)cc2)c1=O [I-71]	10	10	10	10	10	10	10	6	9	10	9
CCc1ccccc1-n1c(=O)c(C(=O)C2=C(O)CCCC2=O)nn(C)c1=O [I-288]	10	10	9	9	10	10	10	9	10	10	10
Cn1nc(C(=O)C2=C(O)CCCC2=O)c(=O)n(-c2ccccc2)c1=O [I-50, 6-(2-hydroxy-6-oxocyclohexa-1-enecarbonyl)-2-methyl-4-phenyl-1,2,4-triazine-3,5 (2H, 4H)-dione]	10	10	10	10	10	10	10	10	10	10	10
C#CCn1c(=O)c(C(=O)C2=C(O)CCCC2=O)nn(C)c1=O [I-14]	10	10	10	9	10	10	10	10	10	10	10
Cn1nc(C(=O)C2=C(O)CCCC2=O)c(=O)n(-c2cccnc2Cl)c1=O [I-276]	10	9	10	10	8	9	8	9	10	10	9
Cn1nc(C(=O)C2=C(O)CCCC2=O)c(=O)n(-c2ccc(F)c(F)c2)c1=O [I-75]	10	9	10	10	10	10	10	7	10	10	10
CCn1c(=O)c(C(=O)C2=C(O)CCCC2=O)nn(C)c1=O [I-2]	10	10	10	9	10	10	10	7	10	10	10
Cc1cc(Cl)ccc1-n1c(=O)c(C(=O)C2=C(O)CCCC2=O)nn(C)c1=O [I-137]	10	10	10	10	10	10	10	9	10	10	10
Cn1nc(C(=O)C2=C(O)CCCC2=O)c(=O)n(-c2ccccn2)c1=O [I-179]	9	10	10	10	10	10	10	10	10	10	10
COc1ccc(-n2c(=O)c(C(=O)C3=C(O)CCCC3=O)nn(C)c2=O)c(OC)c1OC [I-298]	10	7	10	10	10	10	10	7	8	10	9
Cn1nc(C(=O)C2=C(O)CCCC2=O)c(=O)n(-c2ccc(C#N)cc2)c1=O [I-74]	10	10	10	9	10	10	10	7	9	10	9
Cn1nc(C(=O)C2=C(O)CCCC2=O)c(=O)n(C2C=CCCC2)c1=O (stereo not drawn) [I-303]	10	9	9	8	10	10	10	9	10	10	9
